Literature values, collected in publication PMC8198792, “Prediction of Anticancer Peptides with High Efficacy and Low Toxicity by Hybrid Model Based on 3D Structure of Peptides” (International Journal of Molecular Sciences, 2021).
Where two headings read alike, the source gives them in different places.

Test system: cancer cell lines
Design: method as in 6 sources, ref CancerPPD [45] and SATPdb ||| ref CancerPPD/SATPdb ||| ref CancerPPD, SATPdb, Swissprot (PDB) ||| ref CancerPPD/SATPdb/Swissprot(PDB) ||| ref CancerPPD / SATPdb ||| ...
Settings: cited from earlier work
Source text: Supplement ijms-22-05630-s001.zip/ACPs(seguence).xlsx, sheet "D1" | column: Activity || Supplement ijms-22-05630-s001.zip/ACPs(seguence).xlsx, sheet "D2" | column: Activity || Supplement ijms-22-05630-s001.zip/ACPs(seguence).xlsx, sheet "D3" | column: Activity || (+ 2 further places)

[1] = ACPs dataset D1, 1 = ACP (positive), 0 = non-ACP (negative), label taken from databases, ref CancerPPD [45] and SATPdb
[2] = ACPs dataset D4 (sheet "D4"), label 1 = ACP (CancerPPD ID), 0 = non-ACP (non-anticancer AMP, SATPdb ID), ref CancerPPD [45] and SATPdb
[3] = ACPs dataset D1, label 1 = ACP, 0 = non-ACP (non-anticancer AMPs from SATPdb), ref CancerPPD/SATPdb
[4] = ACPs dataset D3 (sheet "D3"), label 1 = ACP, 0 = non-ACP, ref CancerPPD/SATPdb
[5] = ACPs dataset D4 (sheet "D4"), label 1 = ACP, 0 = non-ACP, ref CancerPPD / SATPdb
[6] = ACPs dataset D5, sheet "D5", label 1 = ACP, 0 = non-ACP, ref CancerPPD [45] and SATPdb
[7] = ACPs dataset D4 (sheet "D4"), label 1 = ACP, experimentally validated ACPs, ref CancerPPD [45] and SATPdb
[8] = ACPs dataset D5 (sheet "D5"), label 1 = ACP (positive set), sequences with CancerPPD/SATPdb ID, ref CancerPPD, SATPdb
[9] = ACPs dataset sheet D2, 1 = ACP (CancerPPD/SATPdb ID), 0 = non-ACP (Swissprot/PDB ID), ref CancerPPD, SATPdb, Swissprot (PDB)
[10] = ACPs dataset D3 (supplement sheet "D3"), 1 = ACP, 0 = non-ACP, ref CancerPPD [45] and SATPdb
[11] = ACPs dataset D5 (sheet "D5"), label 1 = ACP (positive set), 0 = non-ACP (negative set), ref CancerPPD [45] and SATPdb
[12] = ACPs dataset D2 (supplement ACPs(seguence).xlsx, sheet D2), dataset label 1/0 (ACP / non-ACP), entries identified by Swissprot(PDB ID), ref CancerPPD/SATPdb/Swissprot(PDB)

In the case of “GIFSSRKCKTPSKTFKGYCTRDSNCDTSCRYEGYPAGD [satpdb10659]”, the Activity [1] is listed as 0 and the Activity [2] is listed as 0.
In the case of FLPLIGKILGTILGK [satpdb11777], the Activity [3] is given as 0 and the Activity [2] is given as 0.
For RGGRLTYTRpRFTVTVGR [satpdb14856], the Activity [4] is listed as 0, the Activity [5] is listed as 0 and the Activity [6] is listed as 0.
For GRLKRLRKKLKKLLKKLS [satpdb12346], the Activity [4] is given as 0, the Activity [5] is given as 0 and the Activity [6] is given as 0.
For “FFGWLIKGAIHAGKAIHGLIHRRRH [compound 4436]”, the Activity [1] is given as 1, the Activity [7] is given as 1 and the Activity [8] is given as 1. The Activity [9] was 1.
In the case of “GLLSVLGSVAKHVLPHVVPVIAEHL [compound 4424]”, the Activity [1] is listed as 1, the Activity [7] is listed as 1 and the Activity [8] is listed as 1. For the same substance, the Activity [9] was 1.
For PKLlKTFlSKWIG [satpdb12561], the Activity [3] is given as 0 and the Activity [2] is given as 0.
In the case of GLKEIFKAGLGSLVKGIAAHVAS [satpdb14561], the Activity [5] is given as 0 and the Activity [6] is given as 0.
In the case of FLKLLKKLAAKLF [compound 1005], the Activity [1] is given as 1, the Activity [7] is given as 1 and the Activity [8] is given as 1. For the same substance, the Activity [9] was 1.
In the case of GLPRKILAAIAKKK [satpdb14133], the Activity [4] is given as 0, the Activity [5] is given as 0 and the Activity [6] is given as 0.
In the case of GKWMSLLKHIWK [compound 3655], the Activity [10] is given as 1, the Activity [2] is given as 1 and the Activity [11] is given as 1.
In the case of FLPIIGQLLSGLL [satpdb10701], the Activity [10] is given as 0, the Activity [5] is given as 0 and the Activity [6] is given as 0.
In the case of “GLFSKFVGKGIKNFLIKGVKHIGKEVGMDVIRVGIDVAGCKIKGVC [satpdb10682]”, the Activity [1] is listed as 0 and the Activity [2] is listed as 0.
In the case of “GIGKFLHSAKKFGKAFVGEIMNSKKKKKKKKKK [satpdb13107]”, the Activity [3] is given as 0 and the Activity [5] is given as 0.
For “RTCESPSNKFQGVCLNSQSCAKACPSEGFSGGRCSSLRCYCSKAC [satpdb13976]”, the Activity [3] is given as 0 and the Activity [2] is given as 0.
For “GTFPCGESCVFIPCLTSAIGCSCKSKVCYKN [compound 4418]”, the Activity [1] is listed as 1, the Activity [7] is listed as 1 and the Activity [8] is listed as 1. The Activity [9] was 1.
In the case of GKWMSLLKHILK [compound 3649], the Activity [10] is listed as 1, the Activity [2] is listed as 1 and the Activity [11] is listed as 1.
In the case of SPWTKCSATCGGGHYMRTR [satpdb19979], the Activity [1] is given as 1, the Activity [7] is given as 1 and the Activity [8] is given as 1. For the same substance, the Activity [9] was 1.
For “FDVNSHTTPCGPVTCSGAQMCEVDKCVCSDLHCKVKCEHGFKKDDNGCEYACICADAPQ [1EJA X-ray 2.70 B 1-59]”, the Activity [12] is given as 0 and the Activity [6] is given as 0.
In the case of “GTPCGESCVYIPCFTAVVGCTCKDKVCYLN [satpdb10441]”, the Activity [3] is listed as 0 and the Activity [2] is listed as 0.
For “GWKKWFNRAKKVGKTVGGLAVDHYLG [satpdb11446]”, the Activity [3] is given as 0 and the Activity [2] is given as 0.
For “GTWDDIGQGIGRVAYWVGKAMGNMSDVNQASRINRKKKH [2JPJ NMR - A 1-39]”, the Activity [12] is given as 0 and the Activity [11] is given as 0.
In the case of “GECEQCFSDGGDCTTCFNNGTGPCANCLAGYPAGCSNSDCTAFLSQCYGGC [1HA8 NMR - A 1-51]”, the Activity [12] is given as 0 and the Activity [6] is given as 0.
For AKRHHGYKRKFH [compound 1423], the Activity [10] is given as 1, the Activity [7] is given as 1 and the Activity [8] is given as 1.
In the case of GLLGPLLKIAKKVGSNLL [satpdb10622], the Activity [10] is listed as 0, the Activity [5] is listed as 0 and the Activity [6] is listed as 0.
In the case of TKPRKTKPRKTKPRKTKPR [compound 5055], the Activity [1] is listed as 1, the Activity [7] is listed as 1 and the Activity [8] is listed as 1. The Activity [9] was 1.
